Measurements published in patent publication US12312359B2 (Vitae Pharmaceuticals, LLC, priority 2016, dated 2025).

Experiments:
[1] = target: T1, biotinylated wild-type menin and MLL-AF9 fusion protein (menin/MLL binding) (Homo sapiens, UniProt O00255); assay: Assay 1: menin/MLL binding AlphaLISA assay, wild-type menin; settings: Table 30; column head does not say wild-type or mutated menin
T1 construct: made in house; host or cells: menin: E. coli; MLL-AF9-FLAG: HEK293 cells, used as cleared lysate
T1 sequence (O00255 1-610): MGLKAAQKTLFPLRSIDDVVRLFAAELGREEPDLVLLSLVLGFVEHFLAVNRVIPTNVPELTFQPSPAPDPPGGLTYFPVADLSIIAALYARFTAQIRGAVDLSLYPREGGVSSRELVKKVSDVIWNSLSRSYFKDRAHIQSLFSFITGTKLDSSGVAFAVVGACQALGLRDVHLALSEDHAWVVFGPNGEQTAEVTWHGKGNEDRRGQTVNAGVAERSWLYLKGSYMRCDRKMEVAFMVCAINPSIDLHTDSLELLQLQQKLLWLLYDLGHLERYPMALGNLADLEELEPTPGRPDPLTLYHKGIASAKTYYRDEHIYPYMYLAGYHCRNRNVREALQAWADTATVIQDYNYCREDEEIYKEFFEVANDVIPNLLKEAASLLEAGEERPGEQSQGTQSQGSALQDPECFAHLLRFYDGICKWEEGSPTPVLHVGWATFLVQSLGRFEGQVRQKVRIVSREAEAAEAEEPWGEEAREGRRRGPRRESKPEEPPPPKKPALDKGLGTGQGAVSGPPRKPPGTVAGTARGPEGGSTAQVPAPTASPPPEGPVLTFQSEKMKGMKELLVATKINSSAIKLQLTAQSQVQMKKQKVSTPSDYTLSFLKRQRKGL
How it was run: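 Compound was preincubated 30 min at room temperature with biotinylated menin (5 nM) and MLL-AF9-FLAG lysate from HEK293 cells, pH 7.4 buffer with 5% DMSO and DTT. Bead-based Alpha signal after 60 min with streptavidin donor and anti-FLAG acceptor beads; four-parameter logistic fit gave IC50.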

[2] = test system: human acute monocytic leukemia cell line MV-4-11; assay: Assay 2: cell proliferation assay (ATP quantitation, CellTiter-Glo), MV-4-11; assay type: cell-based; settings: MV-4-11 cells
How it was run: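 MV-4-11 cells, 1.67×10^4 per well in medium with 10% FBS, were exposed to compound for 72 h at 37° C., 5% CO2; HL-60 cells served as toxicity control. Proliferation read as ATP content by CellTiter-Glo luminescence.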

IC50 [1] [nM] | EC50 ([2]; Homo sapiens, MV4-11, 72 h) [nM] | EC50 ([2]; 72 h) [nM] | SMILES
< 100 | < 100 |  | CC1(C)C(=O)Nc2cc(CN3CCC4(CCN(c5ncncc5Oc5ccc(F)cc5-c5cccnc5C5CC5)C4)C3)ccc21 (stereo not drawn) [Example 179, 6-((7-(5-(2-(2-cyclopropylpyridin-3-yl)-4-fluorophenoxy)pyrimidin-4-yl)-2,7-diazaspiro[4.4]nonan-2-yl)methyl)-3,3-dimethylindolin-2-one]
< 100 | < 100 |  | CC(C)C(=O)N(CC(F)(F)F)c1cc(F)ccc1Oc1cncnc1N1CCC2(CCN(Cc3ccc4[nH]c(=O)[nH]c4c3)C2)C1 (stereo not drawn) [Example 187, N-(5-fluoro-2-((4-(7-((2-oxo-2,3-dihydro-1H-benzo[d]imidazol-5-yl)methyl)-2,7-diazaspiro[4.4]nonan-2-yl)pyrimidin-5-yl)oxy)phenyl)-N-(2,2,2-trifluoroethyl)iso-butyramide]
< 100 | ≥ 1000 |  | N#Cc1ccc(-c2cc(F)ccc2Oc2cncnc2N2CCC3(CCC(N)(Cc4ccccc4)C3)C2)c(C2CC2)c1 (single isomer, unassigned) [Example 250B, 2′-((4-(7-amino-7-benzyl-2-azaspiro[4.4]nonan-2-yl)pyrimidin-5-yl)oxy)-2-cyclopropyl-5′-fluoro-[1,1′-biphenyl]-4-carbonitrile]
< 100 | 100 to 1000 |  | CC(C)N(C(=O)c1cc(F)ccc1Oc1cncnc1N1CC2(CN(C(=O)Cc3ccc(C#N)cc3)C2)C1)C(C)C [Example 116, 2-((4-(6-(2-(4-cyanophenyl)acetyl)-2,6-diazaspiro[3.3]heptan-2-yl)pyrimidin-5-yl)oxy)-5-fluoro-N,N-diisopropylbenzamide]
< 100 | ≥ 1000 |  | CN(C(=O)c1cc(F)ccc1Oc1cncnc1N1CCC2(CCN(Cc3ccc4[nH]c(=O)[nH]c4c3)C2)C1)C1CC1 (stereo not drawn) [Example 165, N-cyclopropyl-5-fluoro-N-methyl-2-((4-(7-((2-oxo-2,3-dihydro-1H-benzo[d]imidazol-5-yl)methyl)-2,7-diazaspiro[4.4]nonan-2-yl)pyrimidin-5-yl)oxy)benzamide]
< 100 | < 100 |  | CCN(C(=O)C(C)C)c1cc(F)ccc1Oc1cncnc1N1CC2(CN(C(=O)C3Cc4ccc(Br)cc4C3)C2)C1 (stereo not drawn) [Example 120, N-(2-((4-(6-(5-bromo-2,3-dihydro-1H-indene-2-carbonyl)-2,6-diazaspiro [3.3]heptan-2-yl)pyrimidin-5-yl)oxy)-5-fluorophenyl)-N-ethylisobutyramide]
< 100 | 100 to 1000 |  | CC(C)N(C)C(=O)c1cc(F)ccc1Oc1cncnc1N1CCC2(CCN(Cc3ccc4c(c3)NC(=O)CO4)C2)C1 (stereo not drawn) [Example 210, 5-fluoro-N-isopropyl-N-methyl-2-((4-(7-((3-oxo-3,4-dihydro-2H-benzo[b][1,4]oxazin-6-yl)methyl)-2,7-diazaspiro[4.4]nonan-2-yl)pyrimidin-5-yl)oxy)benzamide]
< 100 |  | < 100 | CC(C)c1ccccc1-c1cc(F)ccc1Oc1cncnc1N1CCC2(CCN(Cc3ccc4[nH]c(=O)[nH]c4c3)C2)C1 (single isomer, unassigned) [Example 41B, 5-((7-(5-((5-fluoro-2′-isopropyl-[1,1′-biphenyl]-2-yl)oxy)pyrimidin-4-yl)-2,7-diazaspiro[4.4]nonan-2-yl)methyl)-1H-benzo[d]imidazol-2(3H)-one]
< 100 | 100 to 1000 |  | CC(C)c1ccccc1-c1cc(F)ccc1Oc1cncnc1N1CC2(CN(C(=O)Cc3ccc(S(C)(=O)=O)cc3)C2)C1 [Example 229, 1-(6-(5-((5-fluoro-2′-isopropyl-[1,1′-biphenyl]-2-yl)oxy)pyrimidin-4-yl)-2,6-diazaspiro[3.3]heptan-2-yl)-2-(4-(methylsulfonyl)phenyl)ethan-1-one]
< 100 | 100 to 1000 |  | CCN(C(=O)C(C)C)c1cc(F)ccc1Oc1cncnc1N1CC2(CN(C(=O)C3Cc4ccc(S(C)(=O)=O)cc4C3)C2)C1 (stereo not drawn) [Example 117, N-ethyl-N-(5-fluoro-2-((4-(6-(5-(methylsulfonyl)-2,3-dihydro-1H-indene-2-carbonyl)-2,6diazaspiro[3.3]heptan-2-yl)pyrimidin-5-yl)oxy)phenyl)iso-butyramide]
< 100 | 100 to 1000 |  | CC(C)N(C)C(=O)c1cc(F)ccc1Oc1cncnc1N1CCC2(CCN(Cc3ccc4c(c3)[nH]c(=O)n4CCN(C)C)C2)C1 (stereo not drawn) [Example 124, 2-((4-(7-((1-(2-(dimethylamino)ethyl)-2-oxo-2,3-dihydro-1H-benzo[d]imidazol-5-yl)methyl)-2,7-diazaspiro[4.4]nonan-2-yl)pyrimidin-5-yl)oxy)-5-fluoro-N-isopropyl-N-methylbenzamide]
< 100 | 100 to 1000 |  | CC(C)N(C(=O)c1cc(F)ccc1Nc1cncnc1N1CCC2(CC1)CN(CC(C)(C)O)C2)C(C)C [Example 16, 5-fluoro-2-((4-(2-(2-hydroxy-2-methylpropyl)-2,7-diazaspiro[3.5]nonan-7-yl)pyrimidin-5-yl)amino)-N,N-diisopropylbenzamide]
< 100 | 100 to 1000 |  | CC(C)c1ncncc1-c1cc(F)ccc1Oc1cncnc1N1CC2(CN(C(=O)Cc3ccc4c(c3)NC(=O)C4(C)C)C2)C1 [Example 133, 6-(2-(6-(5-(4-fluoro-2-(4-isopropylpyrimidin-5-yl)phenoxy)pyrimidin-4-yl)-2,6-diazaspiro[3.3]heptan-2-yl)-2-oxoethyl)-3,3-dimethylindolin-2-one]
< 100 | 100 to 1000 |  | CCN(C(=O)C(C)C)c1cc(F)ccc1Oc1cncnc1N1CC2(CN(CC3CCOCC3)C2)C1 [Example 121, N-ethyl-N-(5-fluoro-2-((4-(6-((tetrahydro-2H-pyran-4-yl)methyl)-2,6-diazaspiro[3.3]heptan-2-yl)pyrimidin-5-yl)oxy)phenyl)isobutyramide]
< 100 | ≥ 1000 |  | CC(=O)NC(c1cc(F)ccc1Oc1cncnc1N1CCC2(CCN(Cc3ccc4[nH]c(=O)[nH]c4c3)C2)C1)C1CCCC1 (stereo not drawn) [Example 9, N-(cyclopentyl(5-fluoro-2-((4-(7-((2-oxo-2,3-dihydro-1H-benzo[d]imidazol-5-yl)methyl)-2,7-diazaspiro[4.4]nonan-2-yl)pyrimidin-5-yl)oxy)phenyl)methyl)acetamide]
< 100 | < 100 |  | CC(C)c1ncsc1-c1cc(F)ccc1Oc1cncnc1N1CCC2(CCN(Cc3ccc4[nH]c(=O)[nH]c4c3)C2)C1 (stereo not drawn) [Example 224, 5-((7-(5-(4-fluoro-2-(4-isopropylthiazol-5-yl)phenoxy)pyrimidin-4-yl)-2,7-diazaspiro[4.4]nonan-2-yl)methyl)-1,3-dihydro-2H-benzo[d]imidazol-2-one]
< 100 |  | < 100 | CC(C)c1ncncc1-c1cc(F)ccc1Oc1cncnc1N1CCC2(CCN(Cc3ccc4[nH]c(=O)[nH]c4c3)C2)C1 (single isomer, unassigned) [Example 160B, 5-((7-(5-(4-fluoro-2-(4-isopropylpyrimidin-5-yl)phenoxy)pyrimidin-4-yl)-2,7-diazaspiro[4.4]nonan-2-yl)methyl)-1,3-dihydro-2H-benzo[d]imidazol-2-one]
< 100 | 100 to 1000 |  | CC(C)N(C(=O)c1cc(F)ccc1Nc1cncnc1N1CCC2(CC1)CN(C[C@H]1CC[C@H](NC(=O)OC(C)(C)C)CC1)C2)C(C)C [Example 241, tert-butyl ((1r,4r)-4-((7-(5-((2-(diisopropylcarbamoyl)-4-fluorophenyl)amino)pyrimidin-4-yl)-2,7-diazaspiro [3.5]nonan-2-yl)methyl)cyclohexyl) carbamate]
< 100 | 100 to 1000 |  | COC(=O)[C@@H]1CC1c1cc(F)ccc1Oc1cncnc1N1CCC2(CCN(Cc3ccc4[nH]c(=O)[nH]c4c3)C2)C1 (stereo partly drawn) [Example 37, Methyl 2-(5-fluoro-2-((4-(7-((2-oxo-2,3-dihydro-1H-benzo[d]imidazol-5-yl)methyl)-2,7-diazaspiro[4.4]nonan-2-yl)pyrimidin-5-yl)oxy)phenyl)cyclopropanecarboxylate]
< 100 | < 100 |  | CCN(C(=O)C(C)C)c1cc(F)ccc1Oc1cncnc1N1CCC2(CCN(Cc3ccc4[nH]c(=O)[nH]c4c3)C2)C1 (stereo not drawn) [Example 186, N-ethyl-N-(5-fluoro-2-((4-(7-((2-oxo-2,3-dihydro-1H-benzo[d]imidazol-5-yl)methyl)-2,7-diazaspiro[4.4]nonan-2-yl)pyrimidin-5-yl)oxy)phenyl) isobutyramide]
< 100 | < 100 |  | N#Cc1ccc(-c2cc(F)ccc2Oc2cncnc2N2CCC3(CCN(Cc4ccc5oc(=O)[nH]c5c4)C3)C2)c(C2CC2)c1 (stereo not drawn) [Example 169, 2-cyclopropyl-5′-fluoro-2′-((4-(7-((2-oxo-2,3-dihydrobenzo[d]oxazol-5-yl)methyl)-2,7-diazaspiro[4.4]nonan-2-yl)pyrimidin-5-yl)oxy)-[1,1′-biphenyl]-4-carbonitrile]
